Like-named read-outs stand apart in the source and are kept apart here.
Assays:
IL-4 = test: Cytokine assay: IL-4 release from PHA-L stimulated human PBMCs; assay type: cell-based; settings: read-out: IL4 IC50
How it was run: (§1)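 HTRF read-out of cytokine in culture supernatants after 48 h. PBMCs (human, ~250,000/well) received compound (4-fold dilutions, 0.25% DMSO) 10 min before PHA-L at 3.5 μg/mL final. IC50 from four-parameter logistic curve.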

IFNγ = test: Cytokine assay: IFNγ release from PHA-L stimulated human PBMCs; assay type: cell-based
How it was run: as §1

[1] = biological target: PDE4B (aa 152-484, Uniprot ID Q07343) (Homo sapiens (Human), UniProt Q07343); test: PDE4 SPA assay (scintillation proximity assay); assay type: biochemical; settings: read-out: PDE4B2 IC50
How it was run: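 Scintillation proximity read-out after a 30 min room-temperature reaction of ~81.6 pM PDE4B catalytic fragment (aa 152-484) with 1 μM tritiated/unlabeled cAMP, pH 7.5 Tris buffer with MgCl2 and Brij 35. Compound given ~10 min beforehand, 4-fold dilutions, ~2% DMSO; IC50 from four-parameter logistic curve.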

IL-13 = test: Cytokine assay: IL-13 release from PHA-L stimulated human PBMCs; assay type: cell-based; settings: read-out: IL13 IC50
How it was run: as §1

Chain of PDE4B (aa 152-484, Uniprot ID Q07343) (Q07343 324-656): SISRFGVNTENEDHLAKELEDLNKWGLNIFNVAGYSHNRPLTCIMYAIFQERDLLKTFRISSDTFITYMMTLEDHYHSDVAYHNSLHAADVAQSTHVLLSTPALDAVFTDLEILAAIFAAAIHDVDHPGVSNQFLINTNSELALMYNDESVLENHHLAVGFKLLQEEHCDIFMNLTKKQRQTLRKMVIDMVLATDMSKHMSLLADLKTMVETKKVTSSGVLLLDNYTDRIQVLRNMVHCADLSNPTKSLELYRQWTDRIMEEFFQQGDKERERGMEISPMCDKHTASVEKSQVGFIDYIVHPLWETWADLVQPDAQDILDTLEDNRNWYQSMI

| SMILES | IC50 (IL-4; Homo sapiens, PBMC) [nM] | IC50 (IFNγ; Homo sapiens, PBMC) [nM] | IC50 [1] [nM] | IC50 (IL-13; Homo sapiens, PBMC) [nM] | IC50 (IL-4) [nM] | IC50 (IFNγ) [nM] | IC50 (IL-13) [nM] |
| --- | --- | --- | --- | --- | --- | --- | --- |
| CCOc1cc(-c2cncc(C3COB(O)C3)c2)cc(C#N)c1OC (stereo not drawn) [Example 118, 3-ethoxy-5-(5-(2-hydroxy-1,2-oxaborolan-4-yl)pyridin-3-yl)-2-methoxybenzonitrile] | 9.78 | 2.65 | 0.9 | 531 |  |  |  |
| CCOc1cc(-c2cccc(C3COB(O)C3)n2)ccc1SC (single isomer, unassigned; enantiomer 1) [Example 204, 4-(6-(3-ethoxy-4-(methylthio)phenyl)pyridin-2-yl)-1,2-oxaborolan-2-ol, enantiomer 1] | 22.7 | 21.8 | 6.07 | 1710 |  |  |  |
| COc1ccc(-c2cncc(C3COB(O)C3)c2)c(F)c1OC (stereo not drawn) [Example 109, 4-(5-(2-fluoro-3,4-dimethoxyphenyl)pyridin-3-yl)-1,2-oxaborolan-2-ol] |  |  | 4.18 |  | 22.7 | 6.24 | 1270 |
| COc1ccc(-c2cncc(C3COB(O)C3)c2)cc1OCCF (stereo not drawn) [Example 39, 4-(5-(3-(2-fluoroethoxy)-4-methoxyphenyl)pyridin-3-yl)-1,2-oxaborolan-2-ol] | 13.8 | 1.82 | 1.63 | 182 |  |  |  |
| CCOc1cc(-c2cncc(C3COB(O)C3)c2)c(Cl)cc1OC (stereo not drawn) [Example 47, 4-(5-(2-chloro-5-ethoxy-4-methoxyphenyl)pyridin-3-yl)-1,2-oxaborolan-2-ol] | 4.11 | 1.54 | 3.01 | 143 |  |  |  |
| CCOc1cc(-c2nc(C3COB(O)C3)cs2)c(F)cc1OC (stereo not drawn) [Example 91, 4-(2-(5-ethoxy-2-fluoro-4-methoxyphenyl)thiazol-4-yl)-1,2-oxaborolan-2-ol] | 5.9 | 3.92 | 3 | 460 |  |  |  |
| COc1ccc(-c2cncc(C3COB(O)C3)n2)cc1OC1CCCC1 (stereo not drawn) [Example 125, 4-(6-(3-(cyclopentyloxy)-4-methoxyphenyl)pyrazin-2-yl)-1,2-oxaborolan-2-ol] | 11.3 | 2.43 | 1.7 | 577 |  |  |  |
| CCCOc1cc(-c2nc(C)cc(C3COB(O)C3)n2)ccc1OC (single isomer, unassigned) [Example 22, 4-(2-(4-methoxy-3-propoxyphenyl)-6-methylpyrimidin-4-yl)-1,2-oxaborolan-2-ol] | 1.75 | 1.43 | 7.89 | 257 |  |  |  |
| CCCOc1nc(-c2cccc(C3COB(O)C3)c2)ccc1OC (stereo not drawn) [Example 156, 4-(3-(5-methoxy-6-propoxypyridin-2-yl)phenyl)-1,2-oxaborolan-2-ol] | 127 | 1.56 | 0.82 | 901 |  |  |  |
| CCOc1ccc(-c2cncc(C3COB(O)C3)c2)cc1OC (single isomer, unassigned; enantiomer2) [Example 188, 4-(5-(4-ethoxy-3-methoxyphenyl)pyridin-3-yl)-1,2-oxaborolan-2-ol, enantiomer2] | 135 | 12.2 | 12.5 | 1530 |  |  |  |
| CCCOc1cc(-c2cc(C3CB(O)OC3C)cnn2)ccc1OC (stereo not drawn) [Example 30, 4-(6-(4-methoxy-3-propoxyphenyl)pyridazin-4-yl)-5-methyl-1,2-oxaborolan-2-ol] | 70.7 | 11.6 | 15.5 | 10000 |  |  |  |
| CCCOc1nc(-c2cncc(C3COB(O)C3)c2)c(F)cc1OC (single isomer, unassigned; enantiomer 2) [Example 208, (+) 4-(3-fluoro-5-methoxy-6-propoxy-[2,3′-bipyridin]-5′-yl)-1,2-oxaborolan-2-ol, enantiomer 2] |  |  | 0.22 |  | 4.06 | 1.98 | 1800 |
| CCCOc1cc(-c2cccc(C3COB(O)C3C)n2)ccc1OC (stereo not drawn) [Example 27, 4-(6-(4-methoxy-3-propoxyphenyl)pyridin-2-yl)-3-methyl-1,2-oxaborolan-2-ol] | 3790 | 209 | 73.4 | 10000 |  |  |  |
| CCOc1cc(-c2cncc(C3COB(O)C3)c2)c(F)cc1OC (stereo not drawn) [Example 46, 4-(5-(5-ethoxy-2-fluoro-4-methoxyphenyl)pyridin-3-yl)-1,2-oxaborolan-2-ol] | 11.8 | 3.77 | 3.46 | 317 |  |  |  |
| CCOc1c(OC)ccc(-c2cncc(C3COB(O)C3)c2)c1C(F)F (single isomer, unassigned; (-)) [Example 10, (−) 4-(5-(2-(difluoromethyl)-3-ethoxy-4-methoxyphenyl)pyridin-3-yl)-1,2-oxaborolan-2-ol] |  |  | 6.92 |  | 2.39 | 1.62 | 438 |
| CCCOc1cc(-c2cccc(C3COB(O)C3)c2)ccc1OC (single isomer, unassigned) [Example 89, 4-(4′-methoxy-3′-propoxy-[1,1′-biphenyl]-3-yl)-1,2-oxaborolan-2-ol] |  |  | 1.21 |  | 26.4 | 3.5 | 449 |
| COc1ccc(-c2cc(C)cc(C3COB(O)C3)c2)cc1OC (stereo not drawn) [Example 207, 4-(3′,4′-dimethoxy-5-methyl-[1,1′-biphenyl]-3-yl)-1,2-oxaborolan-2-ol] | 390 | 53.5 | 10.3 | 1800 |  |  |  |
| CCOc1cc(-c2nc(OC)cc(C3COB(O)C3)n2)ccc1OC (stereo not drawn) [Example 185, 4-(2-(3-ethoxy-4-methoxyphenyl)-6-methoxypyrimidin-4-yl)-1,2-oxaborolan-2-ol] | 5.75 | 1.3 | 3.38 | 2980 |  |  |  |
| CCOc1cc(C2COB(O)C2)nc(-c2ccc(OC)c(OCC)c2)n1 (stereo not drawn) [Example 222, 4-(6-ethoxy-2-(3-ethoxy-4-methoxyphenyl)pyrimidin-4-yl)-1,2-oxaborolan-2-ol] | 1.44 | 1.17 | 1.14 | 2370 |  |  |  |
| CCOc1c(OC)ccc(-c2cncc(C3COB(O)C3)c2)c1C(F)F (stereo not drawn) [Example 41, 4-(5-(2-(difluoromethyl)-3-ethoxy-4-methoxyphenyl)pyridin-3-yl)-1,2-oxaborolan-2-ol] | 6.2 | 1.87 | 6.85 | 397 |  |  |  |
| CCOc1c(OC)ccc(-c2cncc(C3COB(O)C3)c2)c1F (stereo not drawn) [Example 73, 4-(5-(3-ethoxy-2-fluoro-4-methoxyphenyl)pyridin-3-yl)-1,2-oxaborolan-2-ol] | 49.9 | 1.66 | 2.19 | 384 |  |  |  |
| CCCOc1nc(-c2cncc(C3COB(O)C3)c2)c(F)cc1OC (single isomer, unassigned) [Example 16, 4-(3-fluoro-5-methoxy-6-propoxy-[2,3′-bipyridin]-5′-yl)-1,2-oxaborolan-2-ol] |  |  | 0.05 |  | 0.54 | 0.82 | 126 |
| COc1cnc(-c2cccc(C3COB(O)C3)c2)cc1OC (stereo not drawn) [Example 174, 4-(3-(4,5-dimethoxypyridin-2-yl)phenyl)-1,2-oxaborolan-2-ol] | 279 | 14.4 | 8.57 | 1140 |  |  |  |
| CCCOc1nc(-c2cncc(C3COB(O)C3)c2)ccc1OC (single isomer, unassigned) [Example 61, 4-(5-methoxy-6-propoxy-[2,3′-bipyridin]-5′-yl)-1,2-oxaborolan-2-ol] |  | 2.12 | 0.53 |  | 0.73 |  | 499 |
| COc1ccc(-c2cncc(C3COB(O)C3)c2)cc1OCCO (single isomer, unassigned; enantiomer 2) [Example 228, (+) 4-(5-(3-(2-hydroxyethoxy)-4-methoxyphenyl)pyridin-3-yl)-1,2-oxaborolan-2-ol, enantiomer 2] |  |  | 6.32 |  | 7.78 | 14.2 | 2570 |
| COc1ccc(-c2cncc(C3COB(O)C3)c2)cc1OC1CCSCC1 (stereo not drawn) [Example 169, 4-(5-(4-methoxy-3-((tetrahydro-2H-thiopyran-4-yl)oxy)phenyl)pyridin-3-yl)-1,2-oxaborolan-2-ol] | 33 | 5.84 | 2.85 | 2020 |  |  |  |
| CCOc1cc(-c2cncc(C3COB(O)C3)n2)ccc1OC (single isomer, unassigned) [Example 24, 4-(6-(3-ethoxy-4-methoxyphenyl)pyrazin-2-yl)-1,2-oxaborolan-2-ol] | 2.24 | 1.33 | 0.99 | 163 |  |  |  |
| COc1ccc(-c2cncc(C3COB(O)C3)c2)cc1OC(C)C (single isomer, unassigned; enantiomer 2) [Example 190, 4-(5-(3-isopropoxy-4-methoxyphenyl)pyridin-3-yl)-1,2-oxaborolan-2-ol, enantiomer 2] |  |  | 1.43 |  | 40.3 | 5.01 | 1480 |
| CCCOc1cc(-c2cncc(C3COB(O)C3)c2C)ccc1OC (single isomer, unassigned) [Example 85, 4-(5-(4-methoxy-3-propoxyphenyl)-4-methylpyridin-3-yl)-1,2-oxaborolan-2-ol] | 0.9 | 0.56 | 0.29 | 541 |  |  |  |
| COc1ccc(-c2cncc(C3COB(O)C3)c2)cc1OC(C)C (stereo not drawn) [Example 35, 4-(5-(3-isopropoxy-4-methoxyphenyl)pyridin-3-yl)-1,2-oxaborolan-2-ol] | 6.98 | 1.55 | 1.17 | 230 |  |  |  |

From patent US11559538B2, “Substituted 1,2-oxaborolan-2-ols as PDE4 inhibitors” (Pfizer Inc., priority 2018, dated 2023)
